The values below come from ChEMBL document CHEMBL3232941, “Docking and SAR studies of calystegines: binding orientation and influence on pharmacological chaperone effects for Gaucher's disease” (Bioorg Med Chem, 2014).

Broadly, the IC50 is the concentration at which inhibition is half-maximal. Lower therefore signals greater potency in that assay. For orientation: Ki means the equilibrium dissociation constant of an inhibitor or competing ligand from its target. A lower Ki goes with higher affinity. The inhibition is the drop in the measured response relative to a control, in per cent. Low values mean a response near the control, high ones a response far below the control.

Experiment [1] has as its target T1, Lysosomal acid glucosylceramidase (Homo sapiens, UniProt P04062).
T1 sequence (P04062 whole entry): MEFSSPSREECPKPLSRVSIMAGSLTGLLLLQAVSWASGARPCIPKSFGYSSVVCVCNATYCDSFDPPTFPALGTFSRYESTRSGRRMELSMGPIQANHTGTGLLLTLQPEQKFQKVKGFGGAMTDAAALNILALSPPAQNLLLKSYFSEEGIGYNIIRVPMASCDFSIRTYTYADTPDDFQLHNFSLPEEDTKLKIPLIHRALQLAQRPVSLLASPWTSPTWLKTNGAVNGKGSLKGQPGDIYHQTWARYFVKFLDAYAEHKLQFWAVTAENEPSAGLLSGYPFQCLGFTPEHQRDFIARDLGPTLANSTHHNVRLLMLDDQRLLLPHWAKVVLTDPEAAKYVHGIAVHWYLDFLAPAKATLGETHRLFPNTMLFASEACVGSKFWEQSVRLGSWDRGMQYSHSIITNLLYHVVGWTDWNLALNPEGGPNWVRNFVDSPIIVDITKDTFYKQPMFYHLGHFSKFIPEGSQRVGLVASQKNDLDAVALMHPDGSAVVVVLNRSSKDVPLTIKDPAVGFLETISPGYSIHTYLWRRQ
Description: Inhibition of human lysosomal beta-glucocerebrosidase using 4-methylumbelliferyl-beta-D-glucopyranoside as substrate preincubated for 45 mins before substrate addition measured after 30 mins by fluorescence spectrophotometer analysis.

Experiment [2] concerns the target T1, Lysosomal acid glucosylceramidase. Description: Competitive inhibition of human lysosomal beta-glucocerebrosidase using 4-methylumbelliferyl-beta-D-glucopyranoside as substrate preincubated for 45 mins before substrate addition measured after 30 mins by double-reciprocal plot analysis.
The target of experiment [3] is T2, Lysosomal acid glucosylceramidase (Homo sapiens) (UniProt P04062).
T2 sequence (whole entry): T1 sequence (P04062 whole entry)
Description: Inhibition of human lysosomal beta-glucocerebrosidase using 4-methylumbelliferyl-beta-D-glucopyranoside as substrate at 1000 uM preincubated for 45 mins before substrate addition measured after 30 mins by fluorescence spectrophotometer analysis.

In experiment [1], `O[C@@H]1C[C@H]2CC[C@](O)(N2)[C@H]1O` showed a concentration for half-maximal inhibition (IC50) of 16 µM. In addition, the affinity in experiment [2], expressed as Ki, was 6.3 µM.
`O[C@@H]1[C@H](O)[C@H]2CC[C@](O)(N2)[C@H]1O`: in experiment [1], 175 µM corresponded to half-maximal inhibition (IC50). Besides, affinity in experiment [2] was put at a Ki of 98 µM.
`O[C@@H]1[C@@H](O)[C@H]2CC[C@](O)(N2)[C@@H]1O` displayed an IC50 in experiment [1] of 616 µM. Besides, the inhibition constant Ki in experiment [2] came out at 199 µM.
In the case of `O[C@@H]1[C@@H](O)C[C@]2(O)CC[C@H]1N2`, in experiment [3], the inhibition is less than 50%.
In experiment [1], `O[C@@H]1[C@@H](O)[C@H](O)[C@]2(O)CC[C@H]1N2` [CALYSTEGINE B2] yielded an IC50 of 5.1 µM. This compound also displayed a Ki in experiment [2] of 3.8 µM.
